From patent US20240058422A1, “GLUCAGON-LIKE PEPTIDE-1 RECEPTOR ANTAGONISTS” (INDIANA UNIVERSITY RESEARCH AND TECHNOLOGY CORPORATION, priority 2022, published 2024)
Like-named read-outs stand apart in the source and are kept apart here. Starred links: 1 amine or outer side, 2 acyl side, 3 side chain; linkers in the order of their positions; H or OH if unused. Residues, ends and D or L forms follow the SMILES beside them. Groups on a side chain read outwards from the residue. *: point of attachment. C18 diacid = O=C(O)CCCCCCCCCCCCCCCCC(=O)*; γGlu = O=C(O)[C@H](CCC(=O)[*:2])N[*:1]; Palmitoyl = CCCCCCCCCCCCCCCC(=O)*; AEEA = NCCOCCOCC(=O)O

What was measured:
GLP-1R = GLP-1R (Homo sapiens, UniProt P43220); assay: GLP-1 receptor-mediated cAMP induction, luciferase reporter gene antagonism assay; type: cell-based; design: host or cells: HEK 293; conditions: antagonism of 0.05 nM GLP-1, HEK 293 cells
GLP-1R, sequence (P43220 24-463): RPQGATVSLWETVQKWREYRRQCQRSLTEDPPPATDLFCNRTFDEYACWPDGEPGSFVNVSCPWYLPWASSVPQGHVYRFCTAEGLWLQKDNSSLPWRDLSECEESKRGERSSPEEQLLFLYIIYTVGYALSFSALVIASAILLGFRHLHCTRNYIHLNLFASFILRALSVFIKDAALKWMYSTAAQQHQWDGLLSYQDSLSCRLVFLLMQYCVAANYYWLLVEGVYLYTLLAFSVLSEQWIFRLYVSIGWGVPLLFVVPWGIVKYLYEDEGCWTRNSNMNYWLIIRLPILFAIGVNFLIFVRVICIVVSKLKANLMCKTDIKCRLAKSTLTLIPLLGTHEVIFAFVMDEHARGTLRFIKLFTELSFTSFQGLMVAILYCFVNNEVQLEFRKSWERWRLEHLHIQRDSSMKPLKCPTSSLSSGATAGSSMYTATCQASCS
Description: GLP-1 Receptor-Mediated cAMP Induction The ability of peptides to stimulate or block cAMP induction at the GLP-1 receptor was examined by a luciferase-based reporter gene assay. Cotransfection of HEK 293 cells with the human GLP-1 receptor (Open Biosystems) and a cAMPinducible (cAMPresponsive element) luciferase gene constituted the cellular construct where receptor activation could be measured. Bioassays were performed by first serum depriving the cells for 16 h in 0.25% bovine growth serum (HyClone)-supplemented Dulbecco's modified Eagle's medium (Invitrogen) and then adding serial dilutions of the peptides over the appropriate concentration ranges in 96-well poly-D-lysine-coated plates (BD Biosciences). For antagonism assays, a constant concentration of GLP-1 (0.05 nM) was added to the assay plate after the diluted peptides. Incubation continued for 5 h at 37° C., 5% CO2 and was followed by the addition of an equivalent volume (100 μL) of LucLite luminescence substrate reagent (Perkin-Elmer). MicroBeta 1450 liquid scintillation counting (Perkin-Elmer) quantified the luminescence signal in counts per second (cps) after shaking the plate at 600 rpm for 3 min. Data was plotted using Origin software (OriginLab) and the effective concentration 50 (EC50) or inhibitory concentration 50 (IC50) was determined by sigmoidal fitting. Potency was determined by comparative analysis of relative EC50 or IC50 values. Each experiment was repeated at least three times with each sample assayed in duplicate.

Solubility in buffer = conditions: 80 mM ammonium bicarbonate buffer
[1] = Table 2, C16 linker variants of 9-40amide Jant4 K40[X], read-out: Biactivity IC50
[2] = pH 7.7, Solubility [mg/mL] 80 mM AmBicarb pH7.7, Table 2, 80 mM AmBicarb pH7.7

In the case of `CC[C@H](C)[C@H](NC(=O)[C@H](Cc1ccccc1)NC(=O)[C@H](CCC(=O)O)NC(=O)[C@H](CCCNC(=N)N)NC(=O)[C@@H](NC(=O)[C@H](C)NC(=O)[C@H](CCC(N)=O)NC(=O)[C@H](CCC(=O)O)NC(=O)[C@H](CCC(=O)O)NC(=O)[C@H](CC(C)C)NC(=O)[C@H](Cc1ccc(O)cc1)NC(=O)[C@H](CO)NC(=O)[C@H](CO)NC(=O)[C@@H](NC(=O)[C@@H](N)CC(=O)O)C(C)C)C(C)C)C(=O)N[C@@H](C)C(=O)N[C@@H](Cc1c[nH]c2ccccc12)C(=O)N[C@@H](CC(C)C)C(=O)N[C@H](C(=O)N[C@@H](CCCCN)C(=O)NCC(=O)NCC(=O)N1CCC[C@H]1C(=O)N[C@@H](CO)C(=O)N[C@@H](CO)C(=O)NCC(=O)N[C@@H](C)C(=O)N1CCC[C@H]1C(=O)N1CCC[C@H]1C(=O)N1CCC[C@H]1C(=O)N[C@@H](CO)C(=O)N[C@@H](CCCCNC(=O)CCCCCCCCCCCCCCCCC(=O)O)C(N)=O)C(C)C` [compound 63] (H-DVSSYLEEQAVREFIAWLVKGGPSSGAPPPSK(C18 diacid)-NH2; N-terminus assumed), the IC50 (GLP-1R; [1]) is reported as 114 nM and the solubility (Solubility in buffer; [2]) is reported as greater than 25 mg/mL.

With `CC[C@H](C)[C@H](NC(=O)[C@H](Cc1ccccc1)NC(=O)[C@H](CCC(=O)O)NC(=O)[C@H](CCCNC(=N)N)NC(=O)[C@@H](NC(=O)[C@H](C)NC(=O)[C@H](CCC(N)=O)NC(=O)[C@H](CCC(=O)O)NC(=O)[C@H](CCC(=O)O)NC(=O)[C@H](CC(C)C)NC(=O)[C@H](Cc1ccc(O)cc1)NC(=O)[C@H](CO)NC(=O)[C@H](CO)NC(=O)[C@@H](NC(=O)[C@@H](N)CC(=O)O)C(C)C)C(C)C)C(=O)N[C@@H](C)C(=O)N[C@@H](Cc1c[nH]c2ccccc12)C(=O)N[C@@H](CC(C)C)C(=O)N[C@H](C(=O)N[C@@H](CCCCN)C(=O)NCC(=O)NCC(=O)N1CCC[C@H]1C(=O)N[C@@H](CO)C(=O)N[C@@H](CO)C(=O)NCC(=O)N[C@@H](C)C(=O)N1CCC[C@H]1C(=O)N1CCC[C@H]1C(=O)N1CCC[C@H]1C(=O)N[C@@H](CO)C(=O)N[C@@H](CCCCNC(=O)CC[C@H](NC(=O)CC[C@H](NC(=O)CCCCCCCCCCCCCCCCC(=O)O)C(=O)O)C(=O)O)C(N)=O)C(C)C` [compound 64] (H-DVSSYLEEQAVREFIAWLVKGGPSSGAPPPSK([γGlu-γGlu-C18 diacid])-NH2; N-terminus assumed) the IC50 (GLP-1R; [1]) was 841 nM and the solubility (Solubility in buffer; [2]) was greater than 25 mg/mL.

In the case of `CC[C@H](C)[C@H](NC(=O)[C@H](Cc1ccccc1)NC(=O)[C@H](CCC(=O)O)NC(=O)[C@H](CCCNC(=N)N)NC(=O)[C@@H](NC(=O)[C@H](C)NC(=O)[C@H](CCC(N)=O)NC(=O)[C@H](CCC(=O)O)NC(=O)[C@H](CCC(=O)O)NC(=O)[C@H](CC(C)C)NC(=O)[C@H](Cc1ccc(O)cc1)NC(=O)[C@H](CO)NC(=O)[C@H](CO)NC(=O)[C@@H](NC(=O)[C@@H](N)CC(=O)O)C(C)C)C(C)C)C(=O)N[C@@H](C)C(=O)N[C@@H](Cc1c[nH]c2ccccc12)C(=O)N[C@@H](CC(C)C)C(=O)N[C@H](C(=O)N[C@@H](CCCCN)C(=O)NCC(=O)NCC(=O)N1CCC[C@H]1C(=O)N[C@@H](CO)C(=O)N[C@@H](CO)C(=O)NCC(=O)N[C@@H](C)C(=O)N1CCC[C@H]1C(=O)N1CCC[C@H]1C(=O)N1CCC[C@H]1C(=O)N[C@@H](CO)C(=O)N[C@@H](CCCCNC(=O)CC[C@H](NC(=O)CC[C@H](NC(=O)CC[C@H](NC(=O)CC[C@H](NC(=O)CCCCCCCCCCCCCCCCC(=O)O)C(=O)O)C(=O)O)C(=O)O)C(=O)O)C(N)=O)C(C)C` [compound 65] (H-DVSSYLEEQAVREFIAWLVKGGPSSGAPPPSK([γGlu-γGlu-γGlu-γGlu-C18 diacid])-NH2; N-terminus assumed), the IC50 (GLP-1R; [1]) is reported as 1070 nM and the solubility (Solubility in buffer; [2]) is reported as greater than 25 mg/mL.

Work on `CC[C@H](C)[C@H](NC(=O)[C@H](Cc1ccccc1)NC(=O)[C@H](CCC(=O)O)NC(=O)[C@H](CCCNC(=N)N)NC(=O)[C@@H](NC(=O)[C@H](C)NC(=O)[C@H](CCC(N)=O)NC(=O)[C@H](CCC(=O)O)NC(=O)[C@H](CCC(=O)O)NC(=O)[C@H](CC(C)C)NC(=O)[C@H](Cc1ccc(O)cc1)NC(=O)[C@H](CO)NC(=O)[C@H](CO)NC(=O)[C@@H](NC(=O)[C@@H](N)CC(=O)O)C(C)C)C(C)C)C(=O)N[C@@H](C)C(=O)N[C@@H](Cc1c[nH]c2ccccc12)C(=O)N[C@@H](CC(C)C)C(=O)N[C@H](C(=O)N[C@@H](CCCCN)C(=O)NCC(=O)NCC(=O)N1CCC[C@H]1C(=O)N[C@@H](CO)C(=O)N[C@@H](CO)C(=O)NCC(=O)N[C@@H](C)C(=O)N1CCC[C@H]1C(=O)N1CCC[C@H]1C(=O)N1CCC[C@H]1C(=O)N[C@@H](CO)C(=O)N[C@@H](CCCCNC(=O)CC[C@H](NC(=O)CC[C@H](NC(=O)CC[C@H](NC(=O)CC[C@H](NC(=O)CC[C@H](NC(=O)CC[C@H](NC(=O)CCCCCCCCCCCCCCCCC(=O)O)C(=O)O)C(=O)O)C(=O)O)C(=O)O)C(=O)O)C(=O)O)C(N)=O)C(C)C` [compound 66] (H-DVSSYLEEQAVREFIAWLVKGGPSSGAPPPSK([γGlu-γGlu-γGlu-γGlu-γGlu-γGlu-C18 diacid])-NH2; N-terminus assumed) yielded an IC50 (GLP-1R; [1]) of 1460 nM and a solubility (Solubility in buffer; [2]) greater than 25 mg/mL.

`CC[C@H](C)[C@H](NC(=O)[C@H](Cc1ccccc1)NC(=O)[C@H](CCC(=O)O)NC(=O)[C@H](CCCNC(=N)N)NC(=O)[C@@H](NC(=O)[C@H](C)NC(=O)[C@H](CCC(N)=O)NC(=O)[C@H](CCC(=O)O)NC(=O)[C@H](CCC(=O)O)NC(=O)[C@H](CC(C)C)NC(=O)[C@H](Cc1ccc(O)cc1)NC(=O)[C@H](CO)NC(=O)[C@H](CO)NC(=O)[C@@H](NC(=O)[C@@H](N)CC(=O)O)C(C)C)C(C)C)C(=O)N[C@@H](C)C(=O)N[C@@H](Cc1c[nH]c2ccccc12)C(=O)N[C@@H](CC(C)C)C(=O)N[C@H](C(=O)N[C@@H](CCCCN)C(=O)NCC(=O)NCC(=O)N1CCC[C@H]1C(=O)N[C@@H](CO)C(=O)N[C@@H](CO)C(=O)NCC(=O)N[C@@H](C)C(=O)N1CCC[C@H]1C(=O)N1CCC[C@H]1C(=O)N1CCC[C@H]1C(=O)N[C@@H](CO)C(=O)N[C@@H](CCCCNC(=O)COCCOCCNC(=O)COCCOCCNC(=O)CC[C@H](NC(=O)CCCCCCCCCCCCCCCCC(=O)O)C(=O)O)C(N)=O)C(C)C` [compound 67] (H-DVSSYLEEQAVREFIAWLVKGGPSSGAPPPSK([AEEA-AEEA-γGlu-C18 diacid])-NH2) gave an IC50 (GLP-1R; [1]) of 579 nM and a solubility (Solubility in buffer; [2]) greater than 25 mg/mL.

`CC[C@H](C)[C@H](NC(=O)[C@H](Cc1ccccc1)NC(=O)[C@H](CCC(=O)O)NC(=O)[C@H](CCCNC(=N)N)NC(=O)[C@@H](NC(=O)[C@H](C)NC(=O)[C@H](CCC(N)=O)NC(=O)[C@H](CCC(=O)O)NC(=O)[C@H](CCC(=O)O)NC(=O)[C@H](CC(C)C)NC(=O)[C@H](Cc1ccc(O)cc1)NC(=O)[C@H](CO)NC(=O)[C@H](CO)NC(=O)[C@@H](NC(=O)[C@@H](N)CC(=O)O)C(C)C)C(C)C)C(=O)N[C@@H](C)C(=O)N[C@@H](Cc1c[nH]c2ccccc12)C(=O)N[C@@H](CC(C)C)C(=O)N[C@H](C(=O)N[C@@H](CCCCN)C(=O)NCC(=O)NCC(=O)N1CCC[C@H]1C(=O)N[C@@H](CO)C(=O)N[C@@H](CO)C(=O)NCC(=O)N[C@@H](C)C(=O)N1CCC[C@H]1C(=O)N1CCC[C@H]1C(=O)N1CCC[C@H]1C(=O)N[C@@H](CO)C(=O)N[C@@H](CCCCNC(=O)COCCOCCNC(=O)CC[C@H](NC(=O)CCCCCCCCCCCCCCCCC(=O)O)C(=O)O)C(N)=O)C(C)C` [compound 68] (H-DVSSYLEEQAVREFIAWLVKGGPSSGAPPPSK([AEEA-γGlu-C18 diacid])-NH2; N-terminus assumed) showed an IC50 (GLP-1R; [1]) of 718 nM and a solubility (Solubility in buffer; [2]) greater than 25 mg/mL.

Work on `CCCCCCCCCCCCCCCC(=O)NCCCC[C@H](NC(=O)[C@H](CO)NC(=O)[C@@H]1CCCN1C(=O)[C@@H]1CCCN1C(=O)[C@@H]1CCCN1C(=O)[C@H](C)NC(=O)CNC(=O)[C@H](CO)NC(=O)[C@H](CO)NC(=O)[C@@H]1CCCN1C(=O)CNC(=O)CNC(=O)[C@H](CCCNC(=N)N)NC(=O)[C@@H](NC(=O)[C@H](CC(C)C)NC(=O)[C@H](Cc1c[nH]c2ccccc12)NC(=O)[C@H](C)NC(=O)[C@@H](NC(=O)[C@H](Cc1ccccc1)NC(=O)[C@H](CCC(=O)O)NC(=O)[C@H](CCCNC(=N)N)NC(=O)[C@@H](NC(=O)[C@H](C)NC(=O)[C@H](CCC(=O)O)NC(=O)[C@H](CCC(=O)O)NC(=O)[C@H](CCC(=O)O)NC(=O)[C@H](CC(C)C)NC(=O)[C@H](Cc1ccc(O)cc1)NC(=O)[C@H](CO)NC(=O)[C@H](CO)NC(=O)[C@@H](NC(=O)[C@@H](N)CC(=O)O)C(C)C)C(C)C)[C@@H](C)CC)C(C)C)C(N)=O` [compound 71] (H-DVSSYLEEEAVREFIAWLVRGGPSSGAPPPSK(Palmitoyl)-NH2; N-terminus assumed) yielded an IC50 (GLP-1R; Table 3, amino acid substitution variants of Jant4-K40, read-out: Bioactivity IC50) of 18 nM and a solubility (Solubility in buffer; pH 7.7) greater than 20 mg/mL.
